pIC50, pKi: −log10 of the molar value. Where a name gives a salt, the structure may show the parent alone. Read-outs that look alike come from different tables or passages of the source.
Key:
human 5-HT6 receptor [1] = target: T1, human 5-HT6 receptor (Homo sapiens, UniProt P50406); test: 5-HT6 intrinsic activity assay (inhibition of 5-HT induced increase in cAMP); format: cell-based; settings: read-out: Antagonist potency at the h5-HT6 receptor, IC50,corr
T1 construct: expressed in transfected cells; host or cells: HEK293 (G-418 selected), membrane preparation
T1 sequence (P50406 whole entry): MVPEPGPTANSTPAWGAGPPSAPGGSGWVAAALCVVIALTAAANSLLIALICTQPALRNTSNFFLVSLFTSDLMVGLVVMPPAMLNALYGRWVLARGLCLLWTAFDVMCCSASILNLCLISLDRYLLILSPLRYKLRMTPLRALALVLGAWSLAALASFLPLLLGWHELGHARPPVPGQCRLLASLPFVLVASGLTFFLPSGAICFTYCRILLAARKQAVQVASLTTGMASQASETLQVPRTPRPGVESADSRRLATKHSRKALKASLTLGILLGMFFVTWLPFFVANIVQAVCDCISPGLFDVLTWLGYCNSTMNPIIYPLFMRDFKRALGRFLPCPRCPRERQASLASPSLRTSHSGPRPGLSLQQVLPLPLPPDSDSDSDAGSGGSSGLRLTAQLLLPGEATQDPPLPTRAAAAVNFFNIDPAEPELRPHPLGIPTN
Protocol: (b) 5-HT6 Intrinsic Activity Assay
Briefly, HEK293/5-HT6 cells were seeded in polylysine coated 96-well plates at a density of 25,000/well and grown in DMEM (Dulbecco's Modified Eagle Medium) (without phenol-red) containing 5% dialyzed Foetal Bovine Serum for 48 h at 37° C. in a 5% CO2 incubator. The medium was then aspirated and replaced by 0.1 ml assay medium (Hanks Balance Salt Solution containing 20 mM HEPES, 1.5 mM isobutylmethylxanthine and 1 mg/ml bovine serum albumin). After addition of test substances, 50 μl dissolved in assay medium, the cells were incubated for 10 min at +37° C. in a 5% CO2 incubator. The medium was again aspirated and the cAMP content was determined using a radioactive cAMP kit (Amersham Pharmacia Biotech, BIOTRAK RPA559).

human 5-HT6 receptor [2] = target: T1, human 5-HT6 receptor; test: 5-HT6 receptor binding assay ([3H]-LSD, SPA, membranes of transfected HEK293 cells)

Compound `O=S(=O)(c1ccccc1)n1cc2c3c(cccc31)CNCC2` [Example 15, 1-(Phenylsulfonyl)-3,4,5,6-tetrahydro-1H-azepino[5,4,3-cd]indole] has a pIC50 (human 5-HT6 receptor [1]) of 8.10.
Compound `O=S(=O)(c1ccccc1)n1cc2c3c(cccc31)CN(Cc1ncc[nH]1)C2` [Example 3, 4-(1H-Imidazol-2-ylmethyl)-1-(phenylsulfonyl)-1,3,4,5-tetrahydropyrrolo[4,3,2-de]isoquinoline bis(trifluoroacetate)] has a pIC50 (human 5-HT6 receptor [1]) of 7.55.
`CCN1Cc2cccc3c2c(cn3S(=O)(=O)c2ccccc2)C1` [Example 5, 4-Ethyl-1-(phenylsulfonyl)-1,3,4,5-tetrahydropyrrolo[4,3,2-de] isoquinoline trifluoroacetate] was tested, and the pKi (human 5-HT6 receptor [2]; read-out: Binding affinity (Ki) at the h5-HT6 receptor) was 7.68.
`NCCc1c[nH]c2ccc(O)cc12` [Example 5-HT, 5-hydroxytryptamine, reference compound] was tested, and the Hill coefficient (human 5-HT6 receptor [2]; inter assay, over three experiments) was 0.94 (SD 0.09).
For `CN1CCc2cccc3c2c(cn3S(=O)(=O)c2ccccc2)C1` [Example 13, 4-Methyl-1-(phenylsulfonyl)-3,4,5,6-tetrahydro-1H-azepino[3,4,5-cd]indole hydrochloride], the pKi (human 5-HT6 receptor [2]) was 8.22.

Source: patent US8138333B2, “Sulfonyl-indole derivatives” (Proximagen Limited, priority 2007, dated 2012)
